Where two headings read alike, the source gives them in different places.
Tests used:
Test in all cases: KiNativ assay
Assay type in all cases: binding
Conditions in all cases: H929 live cell
ACK = ACK (Homo sapiens (Human), UniProt Q07912)
Protocol: (§1) Biochemical IC50s of the compounds of the present disclosure against various kinases were measured in a KiNativ assay. Compounds were screened in duplicate at 10 μM in H929 live cell. IC50 was measured via Mass spectroscopy (MS).

BARK1 = BARK1 (Homo sapiens (Human), UniProt P25098)
Protocol: as §1

CDK5 = CDK5 (Homo sapiens (Human), UniProt Q00535)
Protocol: as §1

CHK1 = CHK1 (Homo sapiens (Human), UniProt O14757)
Protocol: as §1

[1] = test system: CaMK2a, CaMK2b, CaMK2d, CaMK2g
Protocol: as §1

CaMK2g = CaMK2g (Homo sapiens (Human), UniProt Q13555)
Protocol: as §1

CaMKK2 = CaMKK2 (Homo sapiens (Human), UniProt Q96RR4)
Protocol: as §1

FYN, SRC, YES = test system: FYN, SRC, YES
Protocol: as §1

GSK3A = GSK3A (Homo sapiens (Human), UniProt P49840)
Protocol: as §1

IRAK1 = IRAK1 (Homo sapiens (Human), UniProt P51617)
Protocol: as §1

JAK3 domain2 = JAK3 domain2 (Homo sapiens (Human), UniProt P52333)
Protocol: as §1

KHS1 = KHS1 (Homo sapiens (Human), UniProt Q9Y4K4)
Protocol: as §1

LATS1 = LATS1 (Homo sapiens (Human), UniProt O95835)
Protocol: as §1

MAP2K5 = MAP2K5 (Homo sapiens (Human), UniProt Q13163)
Protocol: as §1

MARK4 = MARK4 (Homo sapiens (Human), UniProt Q96L34)
Protocol: as §1

MST1 = MST1 (Homo sapiens (Human), UniProt Q13043)
Protocol: as §1

NEK6, NEK7 = test system: NEK6, NEK7
Protocol: as §1

NEK8 = NEK8 (Homo sapiens (Human), UniProt Q86SG6)
Protocol: as §1

PIK3CB = PIK3CB (Homo sapiens (Human), UniProt P42338)
Protocol: as §1

PIK3CG = PIK3CG (Homo sapiens (Human), UniProt P48736)
Protocol: as §1

PIP4K2C = PIP4K2C (Homo sapiens (Human), UniProt Q8TBX8)
Protocol: as §1

PKCz = PKCz (Homo sapiens (Human), UniProt Q05513)
Protocol: as §1

PKN1 = PKN1 (Homo sapiens (Human), UniProt Q16512)
Protocol: as §1

PRPK = PRPK (Homo sapiens (Human), UniProt Q96S44)
Protocol: as §1

RSK1 domain1 = RSK1 domain1 (Homo sapiens (Human), UniProt Q15418)
Protocol: as §1

SRPK2 = SRPK2 (Homo sapiens (Human), UniProt P78362)
Protocol: as §1

STLK3 = STLK3 (Homo sapiens (Human), UniProt Q9UEW8)
Protocol: as §1

STLK5 = STLK5 (Homo sapiens (Human), UniProt Q7RTN6)
Protocol: as §1

TAO2 = TAO2 (Homo sapiens (Human), UniProt Q9UL54)
Protocol: as §1

TLK2 = TLK2 (Homo sapiens (Human), UniProt Q86UE8)
Protocol: as §1

Wnk1, Wnk2, Wnk3 = test system: Wnk1, Wnk2, Wnk3
Protocol: as §1

ZAK = ZAK (Homo sapiens (Human), UniProt Q9NYL2)
Protocol: as §1

p70S6K = p70S6K (Homo sapiens (Human), UniProt P23443)
Protocol: as §1

[2] = range class, read-out: % inhibition

LATS1, sequence (O95835 whole entry): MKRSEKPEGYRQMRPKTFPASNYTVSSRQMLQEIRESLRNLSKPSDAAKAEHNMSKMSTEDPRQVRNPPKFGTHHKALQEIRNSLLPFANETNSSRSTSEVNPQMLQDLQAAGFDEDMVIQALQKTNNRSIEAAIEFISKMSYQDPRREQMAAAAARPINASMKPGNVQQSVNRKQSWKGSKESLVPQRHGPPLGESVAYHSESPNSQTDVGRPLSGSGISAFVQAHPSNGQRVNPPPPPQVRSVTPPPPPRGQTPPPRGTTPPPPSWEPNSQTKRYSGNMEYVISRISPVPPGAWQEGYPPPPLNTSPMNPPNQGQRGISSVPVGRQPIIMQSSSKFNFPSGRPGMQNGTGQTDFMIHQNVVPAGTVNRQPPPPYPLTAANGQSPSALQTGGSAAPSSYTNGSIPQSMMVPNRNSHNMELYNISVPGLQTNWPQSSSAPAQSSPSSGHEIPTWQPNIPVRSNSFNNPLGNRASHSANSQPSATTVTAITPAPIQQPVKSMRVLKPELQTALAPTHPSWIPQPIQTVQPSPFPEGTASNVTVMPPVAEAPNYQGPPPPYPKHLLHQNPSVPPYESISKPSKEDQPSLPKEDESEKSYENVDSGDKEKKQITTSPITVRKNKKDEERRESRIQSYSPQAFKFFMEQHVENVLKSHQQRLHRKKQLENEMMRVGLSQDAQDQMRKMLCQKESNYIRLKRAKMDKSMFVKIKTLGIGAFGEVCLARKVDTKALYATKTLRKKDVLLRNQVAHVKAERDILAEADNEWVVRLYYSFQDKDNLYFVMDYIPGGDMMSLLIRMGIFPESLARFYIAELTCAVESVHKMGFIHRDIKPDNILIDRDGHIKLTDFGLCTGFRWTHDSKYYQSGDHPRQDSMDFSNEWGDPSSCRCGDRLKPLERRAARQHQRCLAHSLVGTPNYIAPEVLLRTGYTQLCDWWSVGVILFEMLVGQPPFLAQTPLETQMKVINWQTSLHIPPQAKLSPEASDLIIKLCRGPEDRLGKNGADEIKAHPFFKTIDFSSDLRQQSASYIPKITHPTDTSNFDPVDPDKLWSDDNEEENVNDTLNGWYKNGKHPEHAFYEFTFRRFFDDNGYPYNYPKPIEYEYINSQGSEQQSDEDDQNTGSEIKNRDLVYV
KHS1, sequence (Q9Y4K4 whole entry): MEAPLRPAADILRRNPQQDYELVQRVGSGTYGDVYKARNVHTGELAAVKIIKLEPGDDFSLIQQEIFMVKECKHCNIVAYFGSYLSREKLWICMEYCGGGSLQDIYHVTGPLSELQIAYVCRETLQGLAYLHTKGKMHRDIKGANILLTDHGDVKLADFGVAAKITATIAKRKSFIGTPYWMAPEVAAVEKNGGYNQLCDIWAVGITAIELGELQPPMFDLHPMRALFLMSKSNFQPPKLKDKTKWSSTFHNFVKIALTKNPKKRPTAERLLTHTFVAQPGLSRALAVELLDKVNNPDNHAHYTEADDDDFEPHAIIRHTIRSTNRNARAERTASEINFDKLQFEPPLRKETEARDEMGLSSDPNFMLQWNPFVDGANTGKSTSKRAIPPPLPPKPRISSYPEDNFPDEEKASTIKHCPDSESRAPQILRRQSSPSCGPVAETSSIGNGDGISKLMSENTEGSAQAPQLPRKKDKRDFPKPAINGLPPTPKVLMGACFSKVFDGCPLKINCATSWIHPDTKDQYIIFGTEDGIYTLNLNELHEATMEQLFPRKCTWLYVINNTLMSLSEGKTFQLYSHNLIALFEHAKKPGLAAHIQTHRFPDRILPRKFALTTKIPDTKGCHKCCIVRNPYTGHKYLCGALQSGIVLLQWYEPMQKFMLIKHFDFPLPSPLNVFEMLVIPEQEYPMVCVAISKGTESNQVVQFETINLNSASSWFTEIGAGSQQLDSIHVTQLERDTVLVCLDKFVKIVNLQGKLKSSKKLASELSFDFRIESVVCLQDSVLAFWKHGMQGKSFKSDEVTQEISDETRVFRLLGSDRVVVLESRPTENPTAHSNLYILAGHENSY
STLK5, sequence (Q7RTN6 whole entry): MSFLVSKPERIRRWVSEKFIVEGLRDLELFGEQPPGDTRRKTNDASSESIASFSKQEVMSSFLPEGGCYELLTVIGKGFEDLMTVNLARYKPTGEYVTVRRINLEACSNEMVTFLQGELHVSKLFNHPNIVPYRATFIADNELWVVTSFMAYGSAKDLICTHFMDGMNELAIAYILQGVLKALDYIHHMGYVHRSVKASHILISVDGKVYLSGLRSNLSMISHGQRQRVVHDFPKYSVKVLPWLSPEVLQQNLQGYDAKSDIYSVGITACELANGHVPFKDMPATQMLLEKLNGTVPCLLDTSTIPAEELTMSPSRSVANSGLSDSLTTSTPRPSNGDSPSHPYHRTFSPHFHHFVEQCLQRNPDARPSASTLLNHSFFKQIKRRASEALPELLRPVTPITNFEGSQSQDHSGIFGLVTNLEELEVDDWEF
PIP4K2C, sequence (Q8TBX8 whole entry): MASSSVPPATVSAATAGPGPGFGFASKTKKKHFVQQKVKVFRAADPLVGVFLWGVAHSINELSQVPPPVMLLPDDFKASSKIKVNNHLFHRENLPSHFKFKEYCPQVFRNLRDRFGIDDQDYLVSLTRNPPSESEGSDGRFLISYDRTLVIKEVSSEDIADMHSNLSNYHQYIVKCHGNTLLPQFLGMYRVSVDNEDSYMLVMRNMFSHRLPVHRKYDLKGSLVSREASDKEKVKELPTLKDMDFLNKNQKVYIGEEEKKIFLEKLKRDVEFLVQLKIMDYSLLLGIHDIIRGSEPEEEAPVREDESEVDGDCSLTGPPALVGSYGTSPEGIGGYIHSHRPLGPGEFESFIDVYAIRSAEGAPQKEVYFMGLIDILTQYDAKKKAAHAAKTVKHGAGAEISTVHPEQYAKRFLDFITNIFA
p70S6K, sequence (P23443 whole entry): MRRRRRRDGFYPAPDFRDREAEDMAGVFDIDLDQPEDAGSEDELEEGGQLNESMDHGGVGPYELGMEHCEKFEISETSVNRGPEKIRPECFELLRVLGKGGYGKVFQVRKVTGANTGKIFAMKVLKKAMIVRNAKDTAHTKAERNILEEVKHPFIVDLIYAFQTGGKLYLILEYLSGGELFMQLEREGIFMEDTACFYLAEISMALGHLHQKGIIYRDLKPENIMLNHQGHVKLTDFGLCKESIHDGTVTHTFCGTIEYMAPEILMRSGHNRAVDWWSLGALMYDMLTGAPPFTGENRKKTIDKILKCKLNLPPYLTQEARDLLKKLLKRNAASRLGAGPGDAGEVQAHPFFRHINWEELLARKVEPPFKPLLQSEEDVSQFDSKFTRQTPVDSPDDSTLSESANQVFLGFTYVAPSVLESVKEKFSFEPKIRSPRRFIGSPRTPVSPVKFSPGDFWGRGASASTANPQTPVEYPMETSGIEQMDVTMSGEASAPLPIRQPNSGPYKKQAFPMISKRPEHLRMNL
IRAK1, sequence (P51617 whole entry): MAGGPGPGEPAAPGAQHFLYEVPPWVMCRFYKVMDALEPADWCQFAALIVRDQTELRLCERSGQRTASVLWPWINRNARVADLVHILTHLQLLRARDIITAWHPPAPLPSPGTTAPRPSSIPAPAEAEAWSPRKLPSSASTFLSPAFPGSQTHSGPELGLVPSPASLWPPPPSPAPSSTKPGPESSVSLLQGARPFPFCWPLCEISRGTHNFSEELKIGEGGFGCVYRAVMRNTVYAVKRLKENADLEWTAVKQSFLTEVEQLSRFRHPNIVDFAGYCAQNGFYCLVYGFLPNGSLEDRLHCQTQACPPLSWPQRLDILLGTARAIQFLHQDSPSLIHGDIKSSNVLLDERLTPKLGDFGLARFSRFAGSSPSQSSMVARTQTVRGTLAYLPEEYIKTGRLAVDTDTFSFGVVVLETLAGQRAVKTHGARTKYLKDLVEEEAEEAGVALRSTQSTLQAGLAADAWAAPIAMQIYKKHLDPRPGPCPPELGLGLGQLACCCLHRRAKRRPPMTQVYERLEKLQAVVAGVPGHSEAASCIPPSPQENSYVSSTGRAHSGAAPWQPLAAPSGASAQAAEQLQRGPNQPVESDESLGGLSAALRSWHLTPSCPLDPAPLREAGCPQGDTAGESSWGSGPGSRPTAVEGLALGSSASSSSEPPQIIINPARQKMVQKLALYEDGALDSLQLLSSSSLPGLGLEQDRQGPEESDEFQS
ZAK, sequence (Q9NYL2 whole entry): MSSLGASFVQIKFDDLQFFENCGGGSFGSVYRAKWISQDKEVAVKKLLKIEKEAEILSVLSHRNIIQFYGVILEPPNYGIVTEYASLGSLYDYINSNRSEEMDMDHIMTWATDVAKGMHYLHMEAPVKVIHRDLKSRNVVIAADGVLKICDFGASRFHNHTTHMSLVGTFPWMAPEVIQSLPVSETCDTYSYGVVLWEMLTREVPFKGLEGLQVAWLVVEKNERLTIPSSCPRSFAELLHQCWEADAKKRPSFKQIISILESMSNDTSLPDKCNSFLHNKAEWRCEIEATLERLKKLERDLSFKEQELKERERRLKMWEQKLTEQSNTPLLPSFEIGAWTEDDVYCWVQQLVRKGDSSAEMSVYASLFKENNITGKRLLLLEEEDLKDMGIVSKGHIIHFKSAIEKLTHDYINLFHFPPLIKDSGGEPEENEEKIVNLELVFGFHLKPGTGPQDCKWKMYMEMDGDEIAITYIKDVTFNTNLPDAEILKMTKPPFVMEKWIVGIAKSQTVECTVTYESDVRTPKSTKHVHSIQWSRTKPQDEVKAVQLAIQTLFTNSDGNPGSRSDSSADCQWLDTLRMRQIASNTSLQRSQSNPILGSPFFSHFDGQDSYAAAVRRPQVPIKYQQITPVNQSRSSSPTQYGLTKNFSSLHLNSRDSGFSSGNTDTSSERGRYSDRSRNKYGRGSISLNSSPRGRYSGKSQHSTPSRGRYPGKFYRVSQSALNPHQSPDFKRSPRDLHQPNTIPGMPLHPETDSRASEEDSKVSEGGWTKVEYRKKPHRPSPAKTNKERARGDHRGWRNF

Nc1ncc(-c2ccc(NS(=O)(=O)C3CC3)cc2F)cc1-c1ccc2c(c1)CCNC2=O [Compound I-51, N-(4-(6-amino-5-(1-oxo-1,2,3,4-tetrahydroisoquinolin-6-yl)pyridin-3-yl)-3-fluorophenyl) cyclopropanesulfonamide]
inhibition at 10 µM (ACK; [2]): 0%
inhibition at 10 µM (ACK; read-out: inhibition (10 μM)): -39%
inhibition at 10 µM (BARK1; [2]): 0%
inhibition at 10 µM (BARK1; read-out: inhibition (10 μM)): -5.1%
inhibition at 10 µM (CDK5; [2]): 35 to 40%
inhibition at 10 µM (CDK5; read-out: inhibition (10 μM)): 37.2%
inhibition at 10 µM (CHK1; [2]): 0%
inhibition at 10 µM (CHK1; read-out: inhibition (10 μM)): -20.1%
% inhibition ([1]; 10 μM, range class): 0.0%
inhibition (10 μM) [1]: 19.2%
inhibition at 10 µM (CaMK2g; [2]): 0%
inhibition at 10 µM (CaMK2g; read-out: inhibition (10 μM)): -6.4%
inhibition at 10 µM (CaMKK2; [2]): 75 to 90%
inhibition at 10 µM (CaMKK2; read-out: inhibition (10 μM)): 78.5%
% inhibition (FYN, SRC, YES; 10 μM, range class): 0.0%
inhibition (10 μM) (FYN, SRC, YES): −36.4%
inhibition at 10 µM (GSK3A; [2]): 75 to 90%
inhibition at 10 µM (GSK3A; read-out: inhibition (10 μM)): 85.2%
inhibition at 10 µM (IRAK1; [2]): 50 to 75%
inhibition at 10 µM (IRAK1; read-out: inhibition (10 μM)): 65%
inhibition at 10 µM (JAK3 domain2; [2]): 0%
inhibition at 10 µM (JAK3 domain2; read-out: inhibition (10 μM)): 13.4%
inhibition at 10 µM (KHS1; [2]): 50 to 75%
inhibition at 10 µM (KHS1; read-out: inhibition (10 μM)): 72.7%
inhibition at 10 µM (LATS1; [2]): 0%
inhibition at 10 µM (LATS1; read-out: inhibition (10 μM)): 3.9%
inhibition at 10 µM (MAP2K5; [2]): 0%
inhibition at 10 µM (MAP2K5; read-out: inhibition (10 μM)): -4%
inhibition at 10 µM (MARK4; [2]): 0%
inhibition at 10 µM (MARK4; read-out: inhibition (10 μM)): 22.2%
inhibition at 10 µM (MST1; [2]): > 90%
inhibition at 10 µM (MST1; read-out: inhibition (10 μM)): 96.3%
% inhibition (NEK6, NEK7; 10 μM, range class): 0.0%
inhibition (10 μM) (NEK6, NEK7): −63.6%
inhibition at 10 µM (NEK8; [2]): 0%
inhibition at 10 µM (NEK8; read-out: inhibition (10 μM)): -8.1%
inhibition at 10 µM (PIK3CB; [2]): 0%
inhibition at 10 µM (PIK3CB; read-out: inhibition (10 μM)): 7.2%
inhibition at 10 µM (PIK3CG; [2]): 0%
inhibition at 10 µM (PIK3CG; read-out: inhibition (10 μM)): -146%
inhibition at 10 µM (PIP4K2C; [2]): 75 to 90%
inhibition at 10 µM (PIP4K2C; read-out: inhibition (10 μM)): 85.4%
inhibition at 10 µM (PKCz; [2]): 0%
inhibition at 10 µM (PKCz; read-out: inhibition (10 μM)): 2.1%
inhibition at 10 µM (PKN1; [2]): 0%
inhibition at 10 µM (PKN1; read-out: inhibition (10 μM)): -72.1%
inhibition at 10 µM (PRPK; [2]): 0%
inhibition at 10 µM (PRPK; read-out: inhibition (10 μM)): -47.4%
inhibition at 10 µM (RSK1 domain1; [2]): 0%
inhibition at 10 µM (RSK1 domain1; read-out: inhibition (10 μM)): 5.4%
inhibition at 10 µM (SRPK2; [2]): 0%
inhibition at 10 µM (SRPK2; read-out: inhibition (10 μM)): -41%
inhibition at 10 µM (STLK3; [2]): 0%
inhibition at 10 µM (STLK3; read-out: inhibition (10 μM)): -5%
inhibition at 10 µM (STLK5; [2]): 0%
inhibition at 10 µM (STLK5; read-out: inhibition (10 μM)): -17.1%
inhibition at 10 µM (TAO2; [2]): 35 to 40%
inhibition at 10 µM (TAO2; read-out: inhibition (10 μM)): 40.9%
inhibition at 10 µM (TLK2; [2]): 0%
inhibition at 10 µM (TLK2; read-out: inhibition (10 μM)): -20.1%
% inhibition (Wnk1, Wnk2, Wnk3; 10 μM, range class): 0.0%
inhibition (10 μM) (Wnk1, Wnk2, Wnk3): 0.2%
inhibition at 10 µM (ZAK; [2]): 50 to 75%
inhibition at 10 µM (ZAK; read-out: inhibition (10 μM)): 58.3%
inhibition at 10 µM (p70S6K; [2]): 0%
inhibition at 10 µM (p70S6K; read-out: inhibition (10 μM)): -21.6%

CN(C1CC1)S(=O)(=O)c1ccc(-c2cnc(N)c(-c3ccc4c(c3)CCNC4=O)c2)c(F)c1 [Compound I-28, 4-(6-amino-5-(1-oxo-1,2,3,4-tetrahydroisoquinolin-6-yl)pyridin-3-yl)-N-cyclopropyl-3-fluoro-N-methylbenzenesulfonamide]
inhibition at 10 µM (ACK; read-out: % inhibition (range)): 0%
inhibition at 10 µM (ACK; read-out: inhibition (10 μM)): -18.8%
inhibition at 10 µM (BARK1; read-out: % inhibition (range)): 0%
inhibition at 10 µM (BARK1; read-out: inhibition (10 μM)): 22.3%
inhibition at 10 µM (CDK5; read-out: % inhibition (range)): 0%
inhibition at 10 µM (CDK5; read-out: inhibition (10 μM)): 17%
inhibition at 10 µM (CHK1; read-out: % inhibition (range)): 0%
inhibition at 10 µM (CHK1; read-out: inhibition (10 μM)): 27.5%
% inhibition (range) ([1]; 10 μM): 0.0%
inhibition (10 μM) [1]: 1.4%
inhibition at 10 µM (CaMK2g; read-out: % inhibition (range)): 0%
inhibition at 10 µM (CaMK2g; read-out: inhibition (10 μM)): -13%
inhibition at 10 µM (CaMKK2; read-out: % inhibition (range)): 50 to 75%
inhibition at 10 µM (CaMKK2; read-out: inhibition (10 μM)): 57%
% inhibition (range) (FYN, SRC, YES; 10 μM): 0.0%
inhibition (10 μM) (FYN, SRC, YES): 2.2%
inhibition at 10 µM (GSK3A; read-out: % inhibition (range)): > 90%
inhibition at 10 µM (GSK3A; read-out: inhibition (10 μM)): 93.5%
inhibition at 10 µM (IRAK1; read-out: % inhibition (range)): 50 to 75%
inhibition at 10 µM (IRAK1; read-out: inhibition (10 μM)): 67.8%
inhibition at 10 µM (JAK3 domain2; read-out: % inhibition (range)): 0%
inhibition at 10 µM (JAK3 domain2; read-out: inhibition (10 μM)): 15.2%
inhibition at 10 µM (KHS1; read-out: % inhibition (range)): 75 to 90%
inhibition at 10 µM (KHS1; read-out: inhibition (10 μM)): 75.6%
inhibition at 10 µM (LATS1; read-out: % inhibition (range)): 0%
inhibition at 10 µM (LATS1; read-out: inhibition (10 μM)): 4.8%
inhibition at 10 µM (MAP2K5; read-out: % inhibition (range)): 50 to 75%
inhibition at 10 µM (MAP2K5; read-out: inhibition (10 μM)): 58%
inhibition at 10 µM (MARK4; read-out: % inhibition (range)): 0%
inhibition at 10 µM (MARK4; read-out: inhibition (10 μM)): 23.1%
inhibition at 10 µM (MST1; read-out: % inhibition (range)): > 90%
inhibition at 10 µM (MST1; read-out: inhibition (10 μM)): 94.5%
% inhibition (range) (NEK6, NEK7; 10 μM): 0.0%
inhibition (10 μM) (NEK6, NEK7): −10.5%
inhibition at 10 µM (NEK8; read-out: % inhibition (range)): 0%
inhibition at 10 µM (NEK8; read-out: inhibition (10 μM)): -3.4%
inhibition at 10 µM (PIK3CB; read-out: % inhibition (range)): 0%
inhibition at 10 µM (PIK3CB; read-out: inhibition (10 μM)): 1.9%
inhibition at 10 µM (PIK3CG; read-out: % inhibition (range)): 0%
inhibition at 10 µM (PIK3CG; read-out: inhibition (10 μM)): 1.7%
inhibition at 10 µM (PIP4K2C; read-out: % inhibition (range)): 0%
inhibition at 10 µM (PIP4K2C; read-out: inhibition (10 μM)): 11.8%
inhibition at 10 µM (PKCz; read-out: % inhibition (range)): 0%
inhibition at 10 µM (PKCz; read-out: inhibition (10 μM)): 6.2%
inhibition at 10 µM (PKN1; read-out: % inhibition (range)): 35 to 50%
inhibition at 10 µM (PKN1; read-out: inhibition (10 μM)): 40.5%
inhibition at 10 µM (PRPK; read-out: % inhibition (range)): 0%
inhibition at 10 µM (PRPK; read-out: inhibition (10 μM)): 10.1%
inhibition at 10 µM (RSK1 domain1; read-out: % inhibition (range)): 0%
inhibition at 10 µM (RSK1 domain1; read-out: inhibition (10 μM)): 15.6%
inhibition at 10 µM (SRPK2; read-out: % inhibition (range)): 0%
inhibition at 10 µM (SRPK2; read-out: inhibition (10 μM)): 8.5%
inhibition at 10 µM (STLK3; read-out: % inhibition (range)): 0%
inhibition at 10 µM (STLK3; read-out: inhibition (10 μM)): 13.5%
inhibition at 10 µM (STLK5; read-out: % inhibition (range)): 0%
inhibition at 10 µM (STLK5; read-out: inhibition (10 μM)): 6.3%
inhibition at 10 µM (TAO2; read-out: % inhibition (range)): 50 to 75%
inhibition at 10 µM (TAO2; read-out: inhibition (10 μM)): 61.5%
inhibition at 10 µM (TLK2; read-out: % inhibition (range)): 0%
inhibition at 10 µM (TLK2; read-out: inhibition (10 μM)): 14.2%
% inhibition (range) (Wnk1, Wnk2, Wnk3; 10 μM): 0.0%
inhibition (10 μM) (Wnk1, Wnk2, Wnk3): −31.8%
inhibition at 10 µM (ZAK; read-out: % inhibition (range)): 0%
inhibition at 10 µM (ZAK; read-out: inhibition (10 μM)): 18.2%
inhibition at 10 µM (p70S6K; read-out: % inhibition (range)): 0%
inhibition at 10 µM (p70S6K; read-out: inhibition (10 μM)): -22.7%

Reference: patent US10710978B2, “STK4 inhibitors for treatment of hematologic malignancies” (Dana-Farber Cancer Institute, Inc., priority 2015, dated 2020)
